# Data from patent publication US20080241274A1 (ZIOPHARM Oncology, Inc., priority 2006, published 2008).
# Read-outs that look alike come from different tables or passages of the source.
# Columns and labels:
# A549 NSCLC = test: Monolayer assay (DNA content by propidium iodide), single agents and indibulin combinations, A549; assay type: cell-based, human; conditions: for CI (e), coefficient of interaction under optimal experimental concentrations: named drug in combination with indibulin, mean of quadruplicate; for IC50: Homo sapiens
# Procedure: (§1) The monolayer assay determines the in vitro antitumor activity of test compounds and their capacity to inhibit survival and proliferation of established tumor cell lines. These effects can be determined by establishing the number of viable cells based on measuring the DNA content using propidium iodide. […] Between 5,000 and 10,000 cells were seeded in 96 well plates on Day 0 and the compounds were added 1 day later and incubated for 4 days. The activity was assessed by their IC50 and IC70 values.
# (§2) Growth IC50 and IC70 values (Table 2) were determined using XLfit software package, and used to set the concentration ranges and drug ratios for the synergy detection part of the study.
# (§3) Chou-Talalay median effect method was used to quantitatively characterize drug-drug interaction [Chou T. C. Theoretical basis, experimental design, and computerized simulation of synergism and antagonism in drug combination studies. Pharmacol Rev. 2006 September; 58(3):621-81]. […] Mixtures of the drugs at multiples of their single agent IC50's were prepared, as well as serial dilutions of the mixture. Additionally, single agent dose response was determined for the same concentration ranges as used for combination study.
# (§4) The coefficient of interaction (CI(IC50)) at IC50 and coefficient of interaction under optimal experimental concentrations (CI(e)) were determined using CalcuSyn software package (Table 3, tests were performed in quadruplicate, mean values reported). Commonly, experimental values of CI<0.8 are considered synergistic, 0.8<CI<1.2 additive.
# SKOV3 (ovarian) = test: Monolayer assay (DNA content by propidium iodide), single agents and indibulin combinations, SKOV3; assay type: cell-based, human; conditions: for IC50: Homo sapiens; for CI (e), coefficient of interaction under optimal experimental concentrations / Combination IC50: SKOV3; for CI (e), coefficient of interaction under optimal experimental concentrations: named drug in combination with indibulin, mean of quadruplicate; for Single Agent IC50: SKOV3, single agent (combination study)
# Procedure: as §1, §2, §3, §4
# [1] = system: MCF-7 ER-positive breast cancer; test: Monolayer assay (DNA content by propidium iodide), single agents and indibulin combinations, MCF-7; assay type: cell-based, human; conditions: for IC50: Homo sapiens; for CI (e), coefficient of interaction under optimal experimental concentrations: named drug in combination with indibulin, mean of quadruplicate
# Procedure: as §1, §2, §3, §4
# [2] = system: biotin-labeled calf brain tubulin; test: Competition with 3H-indibulin for tubulin binding (SPA beads); set-up: species or system bovine; conditions: 200-fold molar excess of cold competitor; FIG. 7
# Procedure: (§5) Where indicated, a 200-fold molar excess of cold competitor was added. Tubulin heterodimers were then precipitated with streptavidin-coated SPA beads and bound radioactivity was determined. “No tubulin” indicates non-specifically bound radioactivity measured in the absence of biotin-labeled tubulin.
# [3] = system: biotin-labeled calf brain tubulin; test: Competition with 3H-colchicine for tubulin binding (SPA beads); set-up: species or system bovine; conditions: 200-fold molar excess of cold competitor; FIG. 8
# Procedure: as §5
# PC3 (prostate) = test: Monolayer assay (DNA content by propidium iodide), single agents and indibulin combinations, PC3; assay type: cell-based, human; conditions: for IC50: Homo sapiens, read-out: Single Agent IC50; for Combination IC50 / CI (e), coefficient of interaction under optimal experimental concentrations: PC3; for Combination IC50: concentration of the named drug in the combination; for CI (e), coefficient of interaction under optimal experimental concentrations: named drug in combination with indibulin, mean of quadruplicate
# Procedure: as §1, §2, §3, §4
# [4] = system: adult bovine brain tubulin; test: Tubulin polymerization, adult bovine brain tubulin; assay type: biochemical; conditions: calf and adult bovine brain tubulin compared
# Description: Tubulin from neuronal tissue is post-translationally modified and the degree of modification increases during neuronal development. Calf brain neuronal tubulin and tubulin from other tissues differ in their post-translational modifications from that of adult bovine brain. […] Tubulin polymerization is given as % over DMSO control.
# [5] = system: axonal microtubules of rat pheochromocytoma (PC12) cells; test: Axonal microtubule immunostaining in NGF-differentiated PC12 cells; assay type: cell-based; conditions: PC12 neurites induced by NGF 5-6 days; 24 h treatment at 2×IC50 concentration
# Description: The outgrowth of neurites of PCl2 was induced by NGF for 5-6 days. […] Microtubules within the neurites, were visualized by immunostaining with an antibody recognizing acetylated (axonal) tubulin, leaving the cell bodies unstained.
# [6] = A549, 96 h, A549, single agent, 4 days incubation, read-out: Growth IC50
# [7] = A549, single agent (combination study)
# [8] = MCF7, MCF7, single agent (combination study), read-out: Single Agent IC50
# [9] = MCF7, single agent (combination study)
# [10] = MCF7, indibulin + 5-FU (5FU:indibulin 10.9:1), concentration of the named drug in the combination
# [11] = MCF7, 96 h, MCF7, single agent, 4 days incubation, read-out: Growth IC50
# [12] = MCF7, indibulin + vinorelbine (vinorelbine:indibulin 0.016:1), concentration of the named drug in the combination
# [13] = MCF7, indibulin + paclitaxel (paclitaxel:indibulin 0.27:1), concentration of the named drug in the combination
# [14] = A549, indibulin + carboplatin (carboplatin:indibulin 303:1), concentration of the named drug in the combination
structure (smiles),measurement,setting,value
Nc1ccn([C@@H]2O[C@H](CO)[C@@H](O)C2(F)F)c(=O)n1 [Gemcitabine],"CI (e), coefficient of interaction under optimal experimental concentrations",A549 NSCLC; A549,0.93
same,IC50,A549 NSCLC; [6],1.7 ng/mL
same,IC50,"SKOV3 (ovarian); SK-OV-3, SKOV3, single agent (combination study), read-out: Single Agent IC50",11 ng/mL
same,IC50,"SKOV3 (ovarian); SK-OV-3, SKOV3, indibulin + gemcitabine, concentration of the named drug in the combination, read-out: Combination IC50",12 ng/mL
same,"CI (e), coefficient of interaction under optimal experimental concentrations",SKOV3 (ovarian),0.65
COc1cc([C@@H]2c3cc4c(cc3[C@@H](O[C@@H]3O[C@@H]5CO[C@@H](C)O[C@H]5[C@H](O)[C@H]3O)[C@H]3COC(=O)[C@H]23)OCO4)cc(OC)c1O [Etoposide],Single Agent IC60,A549 NSCLC; [7],177 ng/mL
same,Combination IC60,"A549 NSCLC; A549, indibulin + etoposide, concentration of the named drug in the combination",94 ng/mL
same,"CI (e), coefficient of interaction under optimal experimental concentrations",A549 NSCLC; A549,1.05
same,IC50,A549 NSCLC; [6],52 ng/mL
COc1cccc2c1C(=O)c1c(O)c3c(c(O)c1C2=O)C[C@@](O)(C(=O)CO)C[C@@H]3O[C@H]1C[C@H](N)[C@H](O)[C@H](C)O1 [Doxorubicin],IC50,[1]; [8],7 ng/mL
same,Combination IC50,"[1]; MCF7, indibulin + doxorubicin, concentration of the named drug in the combination",3 ng/mL
same,"CI (e), coefficient of interaction under optimal experimental concentrations",[1]; MCF7,0.64
CC[C@]1(O)C[C@@H]2CN(CCc3c([nH]c4ccccc34)[C@@](C(=O)OC)(c3cc4c(cc3OC)N(C)[C@H]3[C@@](O)(C(=O)OC)[C@H](OC(C)=O)[C@]5(CC)C=CCN6CC[C@]43[C@@H]65)C2)C1 [Vinblastine],Competition with 3H-indibulin for tubulin binding,[2],do not compete
same,"CI (e), coefficient of interaction under optimal experimental concentrations",[1]; MCF7,0.50
same,Inhibition of 3H-colchicine binding (in words),[3],no effect
CC/C(=C(\c1ccccc1)c1ccc(OCCN(C)C)cc1)c1ccccc1 [Tamoxifen],Single Agent IC60,[1]; [9],3166 ng/mL
same,Combination IC60,"[1]; MCF7, indibulin + tamoxifen (tamoxifen:indibulin 100:1), concentration of the named drug in the combination",641 ng/mL
same,"CI (e), coefficient of interaction under optimal experimental concentrations",[1]; MCF7,0.67
"O=c1[nH]cc(F)c(=O)[nH]1 [5-FU, 5-Fluorouracil]",IC50,[1]; [8],92 ng/mL
same,Single Agent IC60,[1]; [9],84 ng/mL
same,Combination IC50,[1]; [10],57 ng/mL
same,Combination IC60,[1]; [10],30 ng/mL
same,"CI (e), coefficient of interaction under optimal experimental concentrations",[1]; MCF7,0.46
CCC1=C[C@@H]2CN(C1)Cc1c([nH]c3ccccc13)[C@@](C(=O)OC)(c1cc3c(cc1OC)N(C)[C@H]1[C@@](O)(C(=O)OC)[C@H](OC(C)=O)[C@]4(CC)C=CCN5CC[C@]31[C@@H]54)C2 [Vinorelbine],IC50,[1]; [11],0.18 ng/mL
same,IC50,[1]; [8],0.19 ng/mL
same,Single Agent IC60,[1]; [9],0.26 ng/mL
same,Combination IC50,[1]; [12],0.08 ng/mL
same,Combination IC60,[1]; [12],0.10 ng/mL
C[C@]12C=CC(=O)C=C1CC[C@@H]1[C@@H]2[C@@H](O)C[C@@]2(C)[C@H]1CC[C@]2(O)C(=O)CO [Prednisolone],IC50,"PC3 (prostate); PC3, single agent (combination study)",137000 ng/mL
same,Combination IC50,PC3 (prostate); indibulin + prednisolone,"145,659 ng/mL"
same,"CI (e), coefficient of interaction under optimal experimental concentrations",PC3 (prostate),0.91
COC(=O)Nc1nc2ccc(C(=O)c3cccs3)cc2[nH]1 [nocodazole],Competition with 3H-indibulin for tubulin binding,[2],compete
same,Inhibition of 3H-colchicine binding (in words),[3],completely inhibit binding
C#Cc1cccc(Nc2ncnc3cc(OCCOC)c(OCCOC)cc23)c1 [Erlotinib],Single Agent IC40,A549 NSCLC; [7],20315 ng/mL
same,Combination IC40,"A549 NSCLC; A549, indibulin + erlotinib (erlotinib:indibulin 208:1), concentration of the named drug in the combination",4424 ng/mL
same,"CI (e), coefficient of interaction under optimal experimental concentrations",A549 NSCLC; A549,0.32
same,IC50,A549 NSCLC; [6],7860 ng/mL
same,IC50,"A549 NSCLC; A549, A549, single agent (combination study), read-out: Single Agent IC50",38500 ng/mL
same,IC50,"A549 NSCLC; A549, A549, indibulin + erlotinib (erlotinib:indibulin 208:1), concentration of the named drug in the combination, read-out: Combination IC50",6200 ng/mL
CC[C@]1(O)C[C@H]2CN(CCc3c([nH]c4ccccc34)[C@@](C(=O)OC)(c3cc4c(cc3OC)N(C=O)[C@H]3[C@@](O)(C(=O)OC)[C@H](OC(C)=O)[C@]5(CC)C=CCN6CC[C@]43[C@@H]65)C2)C1 [vincristine],Inhibition of calf versus bovine brain tubulin polymerization (in words),[4],"inhibited both, calf and bovine brain tubulin polymerization to a similar extent"
CC(=O)O[C@H]1C(=O)[C@@]2(C)[C@H]([C@H](OC(=O)c3ccccc3)[C@]3(O)C[C@H](OC(=O)[C@H](O)[C@@H](NC(=O)c4ccccc4)c4ccccc4)C(C)=C1C3(C)C)[C@]1(OC(C)=O)CO[C@@H]1C[C@@H]2O [Paclitaxel],Competition with 3H-indibulin for tubulin binding,[2],do not compete
same,IC50,[1]; [11],0.3 ng/mL
same,IC50,[1]; [8],1.27 ng/mL
same,Single Agent IC84,[1]; [9],5.3 ng/mL
same,Combination IC50,[1]; [13],1.08 ng/mL
same,Combination IC84,[1]; [13],2.7 ng/mL
same,"CI (e), coefficient of interaction under optimal experimental concentrations",[1]; MCF7,0.42
same,Inhibition of 3H-colchicine binding (in words),[3],no effect
COc1cc([C@@H]2c3cc4c(cc3[C@H](O)[C@H]3COC(=O)[C@H]23)OCO4)cc(OC)c1OC [podophyllotoxin],Competition with 3H-indibulin for tubulin binding,[2],compete
same,Inhibition of 3H-colchicine binding (in words),[3],completely inhibit binding
N.N.O=C([O-])C1(C(=O)[O-])CCC1.[Pt+2] [Carboplatin],Single Agent IC50,A549 NSCLC; [7],"5,827 ng/mL"
same,Single Agent IC70,A549 NSCLC; [7],15365 ng/mL
same,Combination IC50,A549 NSCLC; [14],3481 ng/mL
same,Combination IC70,A549 NSCLC; [14],8044 ng/mL
same,"CI (e), coefficient of interaction under optimal experimental concentrations",A549 NSCLC; A549,0.72
same,Single Agent IC50,SKOV3 (ovarian),"12,026 ng/mL"
same,Combination IC50,"SKOV3 (ovarian); indibulin + carboplatin, concentration of the named drug in the combination","12,881 ng/mL"
same,"CI (e), coefficient of interaction under optimal experimental concentrations",SKOV3 (ovarian),0.73
COc1cc2c(c(OC)c1OC)-c1ccc(OC)c(=O)cc1[C@@H](NC(C)=O)CC2 [colchicine],Effect on axonal microtubules (acetylated tubulin immunostaining),[5],microtubules were partially disrupted
C[C@]12CC[C@@H]3c4ccc(OC(=O)N(CCCl)CCCl)cc4CC[C@H]3[C@@H]1CC[C@@H]2O [Estramustine],IC50,PC3 (prostate),29700 ng/mL
same,Combination IC50,PC3 (prostate); indibulin + estramustine,"26,466 ng/mL"
same,"CI (e), coefficient of interaction under optimal experimental concentrations",PC3 (prostate),0.76
N.N.[Cl][Pt][Cl] [Cisplatin],Single Agent IC50,SKOV3 (ovarian),773 ng/mL
same,Combination IC50,"SKOV3 (ovarian); indibulin + cisplatin, concentration of the named drug in the combination",780 ng/mL
same,"CI (e), coefficient of interaction under optimal experimental concentrations",SKOV3 (ovarian),0.77
